Consider 50 compounds from patent publication US10668047B2, “Aziridine containing DNA alkylating agents” (priority 2015, dated 2020).

For this assay, the system named is H460 non-cell lung cancer human tumor cell line. Nature of the assay: In vitro human tumor cell line cytotoxicity (proliferation) assay, AlamarBlue. The assay is classed as cell-based. As to the method:
IC50 values are reported in micromolar and result from exposure of compound at various concentrations for 2 hrs followed by a wash step and addition of fresh media followed by growth and cell viability staining and comparison to a media only treated control.
Specifically, exponentially growing cells are seeded at a density of 4×10^3 cells per well in a 96 well plate and incubated at 37° C. in 5% CO2, 95% air and 100% relative humidity for 24 hours prior to addition of test compounds. Compounds are solubilized in 100% DMSO at 200 times the desired final test concentration. At the time of drug addition, compounds are further diluted to 4 times the desired final concentration with complete medium. Aliquots of 50 μl of compound at specified concentrations are added to microtiter wells already containing 150 μl of medium, resulting in the final drug concentration reported. After drug addition, the plates are incubated for an additional 2 hours at 37° C., 5% CO2, 95% air, and 100% relative humidity, then the drug is washed off and fresh medium is added and the plates are incubated for addition 70 hrs at 37° C., 5% CO2, 95% air and 100% relative humidity. At the end of this incubation, the viable cells are quantified using the AlamarBlue assay. The drug concentration resulting in growth inhibition of 50% (IC50) is calculated using Prism software (Irvine, Calif.), and the results are listed in the table.

[1] abbreviates: Homo sapiens, NCI-H460, H460 cells, under air, 2 hrs exposure, wash, then 70 hrs growth, read-out: IC50 (air).
Where [2] appears, read: Homo sapiens, NCI-H460, H460 cells, under nitrogen, 2 hrs exposure, wash, then 70 hrs growth, read-out: IC50 (N2).
Where [3] appears, read: H460 cells, under air, 2 hrs exposure, wash, then 70 hrs growth, read-out: IC50 (air).
The mark [4] stands for this setting: H460 cells, under nitrogen, 2 hrs exposure, wash, then 70 hrs growth, read-out: IC50 (N2).

Like-named read-outs stand apart in the source and are kept apart here. A value given as a limit tells only on which side of the number the result lay.

Regarding `CC(OP(=O)(N1CC1)N1CC1)c1ccc([N+](=O)[O-])c(CF)c1` (stereo not shown) [compound 2822], the IC50 under setting [1] was 3100 nM and the concentration for half-maximal inhibition (IC50) under setting [2] was 300 nM.
The corresponding values for `COCCN(CCOC)c1cc(C(C)OP(=O)(N2CC2)N2CC2)ccc1[N+](=O)[O-]` (stereo not shown) [compound 2753] are 19000 nM and 3200 nM.
For `CC(OP(=O)(N1CC1)N1CC1)c1ccc([N+](=O)[O-])c(-c2ccc(F)cc2)c1` (stereo not shown) [compound 2788], the IC50 under setting [1] worked out at 22000 nM and the concentration for half-maximal inhibition (IC50) under setting [2] is 1300 nM.
In the case of `CC(OP(=O)(N1CC1)N1CC1)c1ccc([N+](=O)[O-])c(-c2ccc(-c3ccccc3)cc2)c1` (stereo not shown) [compound 2790], the half-inhibitory concentration (IC50) runs as follows: under setting [1], 4000 nM; under setting [2], 1800 nM.
Take `C=CCCn1c([N+](=O)[O-])cnc1COP(=O)(N1CC1)N1CC1` [compound 2582]: the concentration for half-maximal inhibition (IC50) came to 18000 nM under setting [1] and 100 nM under setting [2].
The corresponding values for `CCC(OP(=O)(N1CC1)N1CC1)c1ccc([N+](=O)[O-])cc1` (stereo not shown) [compound 2681] are 28000 nM and 300 nM.
Take `CC(OP(=O)(N1CC1)N1CC1)c1ccc([N+](=O)[O-])c(Br)c1` (stereo not shown) [compound 2773]: the concentration for half-maximal inhibition (IC50) under setting [1] stood at 16000 nM and the IC50 under setting [2] was 700 nM.
With `CC(OP(=O)(N1CC1)N1CC1)c1ncc([N+](=O)[O-])n1C` (stereo not shown) [compound 2551], the IC50 under setting [3] turned out to be 20000 nM and the 50% inhibitory concentration (IC50) under setting [4] amounted to 100 nM.
For `CC(OP(=O)(N1CC1)N1CC1)c1ccc([N+](=O)[O-])c(-c2ccco2)c1` (stereo not shown) [compound 2782], the half-inhibitory concentration (IC50) under setting [1] is 41000 nM and the IC50 under setting [2] is 1700 nM.
Take `CC(OP(=O)(N1CC1)N1CC1)c1ccc([N+](=O)[O-])c(-n2cnc(CO)c2)c1` (stereo not shown) [compound 2746]: the concentration for half-maximal inhibition (IC50) under setting [1] was 220000 nM and the IC50 under setting [2] turned out to be 2600 nM.
Take `CC(C)(C)C(OP(=O)(N1CC1)N1CC1)c1ccc([N+](=O)[O-])o1` (stereo not shown) [compound 2127]: the IC50 under setting [1] came to 18000 nM and the 50% inhibitory concentration (IC50) under setting [2] was 20 nM.
In the case of `CC(OP(=O)(N1CC1)N1CC1)c1ccc([N+](=O)[O-])c(N=[N+]=[N-])c1` (stereo not shown) [compound 2691], the IC50 is 2300 nM under setting [1] and 2300 nM under setting [2].
`CC(C)C(OP(=O)(N1CC1)N1CC1)c1ncc([N+](=O)[O-])n1C(C)C` (stereo not shown) [compound 2604]: the half-maximal inhibitory concentration (IC50) worked out at 320000 nM under setting [1] and 700 nM under setting [2].
In the case of `O=[N+]([O-])c1cc(Cl)ccc1COP(=O)(N1CC1)N1CC1` [compound 2592], the half-inhibitory concentration (IC50) under setting [1] turned out to be 3300 nM and the half-maximal inhibitory concentration (IC50) under setting [2] was 700 nM.
Turning to `CC(OP(=O)(N1CC1)N1CC1)c1ccc([N+](=O)[O-])c(N(C)CCN(C)C)c1` (stereo not shown) [compound 2736], the IC50 is, setting by setting: under setting [1], 150000 nM; under setting [2], 2800 nM.
On to `O=[N+]([O-])c1ccc(C(CCO)OP(=O)(N2CC2)N2CC2)cc1` (stereo not shown) [compound 2714], for which the IC50 is, setting by setting: under setting [1], 94000 nM; under setting [2], 500 nM.
For the compound `CC(OP(=O)(N1CC1)N1CC1)c1cc(-n2cncc2[N+](=O)[O-])c([N+](=O)[O-])cc1F` (stereo not shown) [compound 2743], the half-maximal inhibitory concentration (IC50) (Homo sapiens, NCI-H460, read-out: IC50 (N2), H460 cells, under nitrogen, 2 hrs exposure, wash, then 70 hrs growth) was 200 nM and the concentration for half-maximal inhibition (IC50) (Homo sapiens, NCI-H460, read-out: IC50 (air), H460 cells, under air, 2 hrs exposure, wash, then 70 hrs growth) came to 3700 nM.
Regarding `CC(OP(=O)(N1CC1)N1CC1)c1ccc([N+](=O)[O-])o1` (stereo not shown) [compound 2138], the IC50 is, setting by setting: under setting [1], 300 nM; under setting [2], 6 nM.
Taken in the same sequence, the figures for `CC(OP(=O)(N1CC1)N1CC1)c1ccc([N+](=O)[O-])c(F)c1` (stereo not shown) [compound 2678] were 32000 nM and 400 nM.
Take `CNc1cc(C(C)OP(=O)(N2CC2)N2CC2)ccc1[N+](=O)[O-]` (stereo not shown) [compound 2679]: the half-inhibitory concentration (IC50) reads like this: under setting [1], 34000 nM; under setting [2], 2900 nM.
Taken in the same sequence, the figures for `O=[N+]([O-])c1ccc(COP(=O)(N2CC2)N2CC2)cc1F` [compound 2666] were 24000 nM and 2000 nM.
For `CC(OP(=O)(N1CC1)N1CC1)c1ccc([N+](=O)[O-])c(-n2cncn2)c1` (stereo not shown) [compound 2727], the IC50 worked out at 31000 nM under setting [1] and 200 nM under setting [2].
The corresponding values for `Cn1c([N+](=O)[O-])cnc1C(CO)OP(=O)(C1CC1)N1CC1` (stereo not shown) [compound 2654] are > 500000 nM and 260000 nM.
Turning to `Cn1c(C(OP(=O)(N2CC2)N2CC2)C(F)(F)C(F)(F)F)cnc1[N+](=O)[O-]` (stereo not shown) [compound 2128], the IC50 under setting [1] came out at 18000 nM and the IC50 under setting [2] was found to be 20 nM.
Taken in the same sequence, the figures for `CC(OP(=O)(N1CC1)N1CC1)c1ccc([N+](=O)[O-])c(-n2ncc3ccccc32)c1` (stereo not shown) [compound 2767] were 2300 nM and 200 nM.
On to `CC(OP(=O)(N1CC1)N1CC1)c1ccc([N+](=O)[O-])c(-c2ccc(C(F)(F)F)cc2)c1` (stereo not shown) [compound 2774], for which the half-inhibitory concentration (IC50) under setting [1] came to 3500 nM and the half-inhibitory concentration (IC50) under setting [2] stood at 800 nM.
Consider `CC(C)Oc1cc([N+](=O)[O-])ccc1COP(=O)(N1CC1)N1CC1` [compound 2599], for which the IC50 is 1500 nM under setting [1] and 80 nM under setting [2].
Taken in the same sequence, the figures for `C=CCC(OP(=O)(N1CC1)N1CC1)c1ccc([N+](=O)[O-])cc1` (stereo not shown) [compound 2689] were 43000 nM and 600 nM.
The corresponding values for `O=[N+]([O-])c1ccc(C(OP(=O)(N2CC2)N2CC2)C(F)(F)F)o1` (stereo not shown) [compound 2139] are 300 nM and 4 nM.
`CC1=NCCN1c1cc(C(C)OP(=O)(N2CC2)N2CC2)ccc1[N+](=O)[O-]` (stereo not shown) [compound 2722]: the IC50 reads like this: under setting [1], 5000 nM; under setting [2], 900 nM.
For the compound `CC(OP(=O)(N1CC1)N1CC1)c1ccc([N+](=O)[O-])c(-n2ccnc2)c1` (stereo not shown) [compound 2703], the IC50 came to 99000 nM under setting [3] and 200 nM under setting [4].
Take `CC(OP(=O)(N1CC1)N1CC1)c1ccc([N+](=O)[O-])c(-n2ccnc2Br)c1` (stereo not shown) [compound 2807]: the half-inhibitory concentration (IC50) runs as follows: under setting [1], 13000 nM; under setting [2], 30 nM.
On to `CC(OP(=O)(N1CC1)N1CC1)c1ccc([N+](=O)[O-])c(-n2ccc3ncccc32)c1` (stereo not shown) [compound 2763], for which the IC50 reads like this: under setting [1], 5000 nM; under setting [2], 100 nM.
On to `CC(OP(=O)(N1CC1)N1CC1)c1ccccc1[N+](=O)[O-]` (stereo not shown) [compound 2547], for which the IC50 was 320000 nM under setting [1] and 2600 nM under setting [2].
On to `CC(OP(=O)(N1CC1)N1CC1)c1ccc([N+](=O)[O-])c(-n2ccnc2)c1` (stereo not shown) [compound 2804], for which the IC50 turned out to be 310000 nM under setting [3] and 600 nM under setting [4].
As to `C=CCC(OP(=O)(N1CC1)N1CC1)c1ccc([N+](=O)[O-])cc1OC` (stereo not shown) [compound 2569], the IC50 is 2000 nM under setting [1] and 50 nM under setting [2].
For `CC(OP(=O)(N1CC1)N1CC1)c1ncc([N+](=O)[O-])n1C` (stereo not shown) [compound 2552], the 50% inhibitory concentration (IC50) under setting [3] was determined as 23000 nM and the concentration for half-maximal inhibition (IC50) under setting [4] came out at 100 nM.
Consider `CC(OP(=O)(N1CC1)N1CC1)c1cc(N(C)CCN(C)C)c([N+](=O)[O-])cc1F` (stereo not shown) [compound 2745], for which the IC50 is, setting by setting: under setting [1], 58000 nM; under setting [2], 300 nM.
Regarding `O=[N+]([O-])c1ccc2c(c1)CCCC2OP(=O)(N1CC1)N1CC1` (stereo not shown) [compound 2676], the half-maximal inhibitory concentration (IC50) under setting [3] came out at 3700 nM and the half-inhibitory concentration (IC50) under setting [4] came out at 100 nM.
Regarding `CC(OP(=O)(N1CC1)N1CC1)c1ccc([N+](=O)[O-])c(N2CCNC2(C)O)c1` (stereo not shown) [compound 2723], the half-maximal inhibitory concentration (IC50) under setting [1] came to 420000 nM and the IC50 under setting [2] is 29000 nM.
Regarding `CC(OP(=O)(N1CC1)N1CC1)c1ccc([N+](=O)[O-])c(N2CCCC2)c1` (stereo not shown) [compound 2708], the concentration for half-maximal inhibition (IC50) is 20000 nM under setting [1] and 3000 nM under setting [2].
Taken in the same sequence, the figures for `CC(OP(=O)(N1CC1)N1CC1)c1ccc([N+](=O)[O-])c(N2CCN(C)CC2)c1` (stereo not shown) [compound 2702] were 47000 nM and 800 nM.
`Cc1cc(COP(=O)(N2CC2)N2CC2)ccc1[N+](=O)[O-]` [compound 2580]: the IC50 reads like this: under setting [1], 20000 nM; under setting [2], 3700 nM.
The corresponding values for `CC(OP(=O)(N1CC1)N1CC1)c1ccc([N+](=O)[O-])c(N2CCC3(CC2)OCCO3)c1` (stereo not shown) [compound 2709] are 26000 nM and 2400 nM.
For the compound `CC(C)C(OP(=O)(N1CC1)N1CC1)c1ncc([N+](=O)[O-])n1CCOC(C)(C)C` (stereo not shown) [compound 2643], the IC50 by setting is: under setting [1], 37000 nM; under setting [2], 600 nM.
Taken in the same sequence, the figures for `C=CCC(OP(=O)(N1CC1)N1CC1)c1ncc([N+](=O)[O-])n1C` (stereo not shown) [compound 2527] were 39000 nM and 90 nM.
Taken in the same sequence, the figures for `Cn1c([N+](=O)[O-])cnc1C(Cc1ccccc1)OP(=O)(N1CC1)N1CC1` (stereo not shown) [compound 2591] were 19000 nM and 100 nM.
Regarding `CC(OP(=O)(N1CC1)N1CC1)c1ccc([N+](=O)[O-])c(-c2ccccc2C(F)(F)F)c1` (stereo not shown) [compound 2799], the concentration for half-maximal inhibition (IC50) is, setting by setting: under setting [1], 37000 nM; under setting [2], 2300 nM.
The corresponding values for `CC(C)C(OP(=O)(N1CC1)N1CC1)c1ncc([N+](=O)[O-])n1CCO` (stereo not shown) [compound 2658] are 86000 nM and 300 nM.
Regarding `CCCC(OP(=O)(N1CC1)N1CC1)c1ncc([N+](=O)[O-])n1C` (stereo not shown) [compound 2529], the IC50 under setting [1] is 33000 nM and the half-inhibitory concentration (IC50) under setting [2] was determined as 200 nM.

What is called IC50 is the concentration that gives 50% inhibition.
